From US9676766B2, “Triazolopyridines” (BAYER INTELLECTUAL PROPERTY GMBH, priority 2009, dated 2017) come the findings set out here.

SMILES strings stand for the structures.

By IC50 is commonly meant the concentration needed to halve the response being measured.

The target of the assay is T1, human kinase Mps-1 (Homo sapiens, UniProt P33981).
T1 construct: N-terminally GST-tagged human full length recombinant Mps-1 kinase; purchased Invitrogen, Karslruhe, Germany PV4071
T1 sequence (P33981 1-857): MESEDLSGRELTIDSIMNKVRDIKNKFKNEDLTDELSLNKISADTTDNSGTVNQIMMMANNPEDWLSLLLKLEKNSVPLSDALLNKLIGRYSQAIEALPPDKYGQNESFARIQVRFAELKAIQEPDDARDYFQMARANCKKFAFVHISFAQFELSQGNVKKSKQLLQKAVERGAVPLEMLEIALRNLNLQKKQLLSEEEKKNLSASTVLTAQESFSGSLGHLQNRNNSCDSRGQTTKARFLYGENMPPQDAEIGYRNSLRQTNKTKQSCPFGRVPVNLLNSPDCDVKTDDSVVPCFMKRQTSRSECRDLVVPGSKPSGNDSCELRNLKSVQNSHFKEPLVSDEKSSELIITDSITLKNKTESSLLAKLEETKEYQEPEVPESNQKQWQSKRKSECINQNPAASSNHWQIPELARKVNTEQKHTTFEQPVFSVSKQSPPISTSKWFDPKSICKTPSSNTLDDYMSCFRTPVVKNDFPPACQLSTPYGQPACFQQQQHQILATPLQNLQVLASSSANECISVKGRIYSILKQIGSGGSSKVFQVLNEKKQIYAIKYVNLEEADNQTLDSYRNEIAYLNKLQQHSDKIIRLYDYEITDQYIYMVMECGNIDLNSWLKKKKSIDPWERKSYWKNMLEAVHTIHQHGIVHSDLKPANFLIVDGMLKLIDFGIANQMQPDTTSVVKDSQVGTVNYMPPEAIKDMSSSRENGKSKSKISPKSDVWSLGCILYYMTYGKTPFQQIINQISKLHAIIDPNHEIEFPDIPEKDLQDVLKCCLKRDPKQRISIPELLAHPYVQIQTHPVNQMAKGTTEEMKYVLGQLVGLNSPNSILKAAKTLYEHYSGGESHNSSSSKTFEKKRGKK
Nature of the assay: Mps-1 Kinase Assay (TR-FRET). In kind it is biochemical. The following applies: N-terminally GST-tagged human full length recombinant Mps-1; 10 μM ATP; 1 μM biotinylated peptide substrate; 60 min at 22° C.; read-out: MPS1 Inhibition, IC50 in M.
As to `COc1ccccc1Nc1nc2ccc(-c3cccc(NC(=O)N4CCN(C)CC4)c3)cn2n1` [Example 8.8, N-(3-{2-[(2-methoxyphenyl)amino][1,2,4]triazolo[1,5-a]pyridin-6-yl}phenyl)-4-methylpiperazine-1-carboxamide], the IC50 turned out to be 620 nM.
`O=C(CC1CC1)Nc1ccc(-c2ccc3nc(Nc4ccccc4C(F)(F)F)nn3c2)cc1` [Example 5.3, 2-cyclopropyl-N-[4-(2-{[2-(trifluoromethyl)phenyl]amino}[1,2,4]triazolo[1,5-a]pyridin-6-yl)phenyl]acetamide]: the IC50 is 81 nM.
With `COc1ccccc1Nc1nc2ccc(-c3cccc(NC(=O)N4CCOCC4)c3)cn2n1` [Example 8.10, N-(3-{2-[(2-methoxyphenyl)amino][1,2,4]triazolo[1,5-a]pyridin-6-yl}phenyl)morpholine-4-carboxamide], the IC50 was 100 nM.
`COc1ccccc1Nc1nc2ccc(-c3ccc(C(=O)NC4CC4)cc3)cn2n1` [Example 1.1, N-Cyclopropyl-4-[2-(2-methoxy-phenylamino)-[1,2,4]triazolo[1,5-a]pyridin-6-yl]-benzamide]: the IC50 was 370 nM.
As for `N#Cc1ccccc1Nc1nc2ccc(-c3cccc(C(=O)Nc4ccccc4)c3)cn2n1` [Example 2.1, 3-{2-[(2-cyanophenyl)amino][1,2,4]triazolo[1,5-a]pyridin-6-yl}-N-phenylbenzamide], the IC50 was 65 nM.
Consider `O=C(Cc1ccccc1)Nc1ccc(-c2ccc3nc(Nc4ccccc4C(F)(F)F)nn3c2)cc1` [Example 5.1, 2-phenyl-N-[4-(2-{[2-(trifluoromethyl)phenyl]amino}[1,2,4]triazolo[1,5-a]pyridin-6-yl)phenyl]acetamide], for which the IC50 was 7.1 nM.
As for `N#Cc1ccccc1Nc1nc2ccc(-c3ccc(NC(=O)Cc4cccnc4)cc3)cn2n1` [Example 3.8, N-(4-{2-[(2-cyanophenyl)amino][1,2,4]triazolo[1,5-a]pyridin-6-yl}phenyl)-2-(pyridin-3-yl)acetamide], the IC50 stood at 3.5 nM.
Consider `O=C(CN1CCCCC1)Nc1ccc(-c2ccc3nc(Nc4ccccc4C(F)(F)F)nn3c2)cc1` [Example 5.6, 2-(piperidin-1-yl)-N-[4-(2-{[2-(trifluoromethyl)phenyl]amino}[1,2,4]triazolo[1,5-a]pyridin-6-yl)phenyl]acetamide], for which the IC50 turned out to be 880 nM.
Regarding `COc1ccccc1Nc1nc2ccc(-c3cccc(NS(=O)(=O)C4CC4)c3)cn2n1` [Example 8.4, N-(3-{2-[(2-methoxyphenyl)amino][1,2,4]triazolo[1,5-a]pyridin-6-yl}phenyl)cyclopropanesulfonamide], the IC50 came to 290 nM.
Consider `COc1ccccc1Nc1nc2ccc(-c3cccc(NC(=O)C4CC4)c3)cn2n1` [Example 8.2, N-(3-{2-[(2-methoxyphenyl)amino][1,2,4]triazolo[1,5-a]pyridin-6-yl}phenyl)cyclopropanecarboxamide], for which the IC50 is 59 nM.
The figure for `COc1ccccc1Nc1nc2ccc(-c3cccc(NC(=O)Cc4ccccc4)c3)cn2n1` [Example 8.1, N-(3-{2-[(2-methoxyphenyl)amino][1,2,4]triazolo[1,5-a]pyridin-6-yl}phenyl)-2-phenylacetamide] is 290 nM; for `N#Cc1ccccc1Nc1nc2ccc(-c3cccc(C(=O)NCc4ccccc4)c3)cn2n1` [Example 9.4, N-benzyl-3-{2-[(2-cyanophenyl)amino][1,2,4]triazolo[1,5-a]pyridin-6-yl}benzamide] it is 21 nM.
Consider `COc1ccccc1Nc1nc2ccc(-c3cccc(NC(=O)Nc4ccncc4)c3)cn2n1` [Example 8.14, 1-(3-{2-[(2-methoxyphenyl)amino][1,2,4]triazolo[1,5-a]pyridin-6-yl}phenyl)-3-pyridin-4-ylurea], for which the IC50 was found to be 660 nM.
In the case of `COc1ccccc1Nc1nc2ccc(-c3cccc(NC(=O)c4ccccc4)c3)cn2n1` [Example 8.7, N-(3-{2-[(2-methoxyphenyl)amino][1,2,4]triazolo[1,5-a]pyridin-6-yl}phenyl)benzamide], the IC50 was found to be 290 nM.
As to `NC(C(=O)Nc1ccc(-c2ccc3nc(Nc4ccccc4C(F)(F)F)nn3c2)cc1)c1ccccc1` (racemic) [Example 5.7, rac-2-amino-2-phenyl-N-[4-(2-{[2-(trifluoromethyl)phenyl]amino}[1,2,4]triazolo[1,5-a]pyridin-6-yl)phenyl]acetamide], the IC50 is 14 nM.
With `CN1CCC(NC(=O)c2cccc(-c3ccc4nc(Nc5ccccc5C#N)nn4c3)c2)CC1` [Example 9.3, 3-{2-[(2-cyanophenyl)amino][1,2,4]triazolo[1,5-a]pyridin-6-yl}-N-(1-methylpiperidin-4-yl)benzamide], the IC50 worked out at 74 nM.
As for `O=C(Cc1cccnc1)Nc1ccc(-c2ccc3nc(Nc4ccccc4C(F)(F)F)nn3c2)cc1` [Example 5.8, 2-(pyridin-3-yl)-N-[4-(2-{[2-(trifluoromethyl)phenyl]amino}[1,2,4]triazolo[1,5-a]pyridin-6-yl)phenyl]acetamide], the IC50 amounted to 99 nM.
Turning to `COc1ccccc1Nc1nc2ccc(-c3cccc(NS(=O)(=O)c4ccccc4)c3)cn2n1` [Example 8.6, N-(3-{2-[(2-methoxyphenyl)amino][1,2,4]triazolo[1,5-a]pyridin-6-yl}phenyl)benzenesulfonamide], the IC50 is 360 nM.
For `COc1ccccc1Nc1nc2ccc(-c3cccc(NS(=O)(=O)CC4CC4)c3)cn2n1` [Example 8.3, 1-Cyclopropyl-N-(3-{2-[(2-methoxyphenyl)amino][1,2,4]triazolo[1,5-a]pyridin-6-yl}phenyl)methanesulfonamide], the IC50 was found to be 66 nM.
The figure for `COc1ccccc1Nc1nc2ccc(-c3cccc(NC(=O)NCCN4CCOCC4)c3)cn2n1` [Example 8.13, 1-(3-{2-[(2-methoxyphenyl)amino][1,2,4]triazolo[1,5-a]pyridin-6-yl}phenyl)-3-[2-(morpholin-4-yl)ethyl]urea] is 470 nM.
The same measure for `COc1ccccc1Nc1nc2ccc(-c3ccc(NC(=O)CC4CC4)cc3)cn2n1` [Example 4.2, 2-cyclopropyl-N-(4-{2-[(2-methoxyphenyl)amino][1,2,4]triazolo[1,5-a]pyridin-6-yl}phenyl)acetamide]: 27 nM; for `COC(C(=O)Nc1ccc(-c2ccc3nc(Nc4ccccc4C(F)(F)F)nn3c2)cc1)c1ccccc1` (racemic) [Example 5.9, Rac-2-methoxy-2-phenyl-N-[4-(2-{[2-(trifluoromethyl)phenyl]amino}[1,2,4]-triazolo[1,5-a]pyridin-6-yl)phenyl]acetamide]: 110 nM; for `COc1ccccc1Nc1nc2ccc(-c3cccc(NC(=O)Nc4cccnc4)c3)cn2n1` [Example 8.12, 1-(3-{2-[(2-methoxyphenyl)amino][1,2,4]triazolo[1,5-a]pyridin-6-yl}phenyl)-3-pyridin-3-ylurea]: 270 nM.
The same measure for `O=C(CN1CCOCC1)Nc1ccc(-c2ccc3nc(Nc4ccccc4C(F)(F)F)nn3c2)cc1` [Example 5.5, 2-(morpholin-4-yl)-N-[4-(2-{[2-(trifluoromethyl)phenyl]amino}[1,2,4]triazolo[1,5-a]pyridin-6-yl)phenyl]acetamide]: 3300 nM.
As for `CN1CCN(C(=O)c2cccc(-c3ccc4nc(Nc5ccccc5C#N)nn4c3)c2)CC1` [Example 9.1, 2-[(6-{3-[(4-methylpiperazin-1-yl)carbonyl]phenyl}[1,2,4]triazolo[1,5-a]pyridin-2-yl)amino]benzonitrile], the IC50 was found to be 59 nM.
For the molecule `COc1ccccc1Nc1nc2ccc(-c3cccc(C(=O)NCc4ccccc4)c3)cn2n1` [Example 10.2, N-benzyl-3-{2-[(2-methoxyphenyl)amino][1,2,4]triazolo[1,5-a]pyridin-6-yl}benzamide], the IC50 was found to be 45 nM.
For the molecule `COc1ccccc1Nc1nc2ccc(-c3ccc(NC(=O)C4CC4)cc3)cn2n1` [Example 4.3, N-(4-{2-[(2-methoxyphenyl)amino][1,2,4]triazolo[1,5-a]pyridin-6-yl}phenyl)cyclopropanecarboxamide], the IC50 turned out to be 39 nM.
As to `N#Cc1ccccc1Nc1nc2ccc(-c3ccc(NC(=O)Cc4ccc(C(F)(F)F)cc4)cc3)cn2n1` [Example 3.1, N-(4-{2-[(2-cyanophenyl)amino][1,2,4]triazolo[1,5-a]pyridin-6-yl}phenyl)-2-[4-(trifluoromethyl)phenyl]acetamide], the IC50 stood at 8.2 nM.
On to `COc1ccccc1Nc1nc2ccc(-c3cccc(C(=O)NC4CC4)c3)cn2n1` [Example 10.1, N-cyclopropyl-3-{2-[(2-methoxyphenyl)amino][1,2,4]triazolo[1,5-a]pyridin-6-yl}benzamide], for which the IC50 turned out to be 6.5 nM.
The figure for `COc1ccccc1Nc1nc2ccc(-c3cccc(NC(=O)Nc4ccccc4)c3)cn2n1` [Example 8.5, 1-(3-{2-[(2-methoxyphenyl)amino][1,2,4]triazolo[1,5-a]pyridin-6-yl}phenyl)-3-phenylurea] is 440 nM.
